Laboratory results taken from ChEMBL document CHEMBL4699529, “Anti-Inflammatory ent-Kaurane Diterpenoids from Isodon serra” (J Nat Prod, 2020).

Legend:
[1] = Inhibition of LPS-induced NO production in mouse BV-2 cells; assay type: functional, cell-based
[2] = tested on: BV-2; test: Cytotoxicity against mouse BV-2 cells; assay type: cell-based

CC(=O)O[C@@H]1[C@@](O)(CO)[C@@H]2CC[C@H]3[C@]45CCCC(C)(C)[C@H]4[C@H](OC(C)=O)[C@@](O)(OC5)[C@]13C2
IC50 [1]: 40.1 µM | Activity [2]: Non-Toxic

CC(=O)O[C@H]1CCC(C)(C)[C@@H](CO)[C@@]12COC(=O)[C@@]13C[C@@H](CC[C@H]12)[C@@H](C)C3=O
IC50 [1]: > 100 µM | Activity [2]: Non-Toxic

C=C1[C@@H]2CC[C@H]3[C@]45CCCC(C)(C)[C@H]4[C@H](O)[C@@](O)(OC5)[C@]3(C2)[C@@H]1O
IC50 [1]: > 60 µM | Activity [2]: Non-Toxic

CC(=O)O[C@@H]1[C@@]2(CO2)[C@@H]2CC[C@H]3[C@]45CCCC(C)(C)[C@H]4[C@H](OC(C)=O)[C@@](O)(OC5)[C@]13[C@@H]2O
IC50 [1]: > 100 µM | Activity [2]: Non-Toxic

CC(=O)O[C@H]1[C@]2(CO2)[C@@H]2CC[C@H]3[C@]45CCCC(C)(C)[C@H]4[C@H](OC(C)=O)[C@@](O)(OC5)[C@@]31C2
IC50 [1]: 15.6 µM | Activity [2]: Non-Toxic

C=C1[C@@H](OC(C)=O)[C@]23[C@H](O)[C@H]1CC[C@H]2[C@@]12CO[C@]3(O)[C@@H](O)[C@@H]1C(C)(C)CC[C@@H]2OC(C)=O
IC50 [1]: > 100 µM | Activity [2]: Non-Toxic

CC(=O)O[C@@H]1[C@@]2(CO2)[C@@H]2CC[C@H]3[C@]45CCCC(C)(C)[C@H]4[C@H](OC(C)=O)[C@@](O)(OC5)[C@]13C2
IC50 [1]: > 100 µM | Activity [2]: Non-Toxic

C=C1[C@@H]2CC[C@H]3[C@]45CCCC(C)(C)[C@H]4[C@H](OC(C)=O)[C@@](O)(OC5)[C@]3(C2)[C@@H]1OC(C)=O
IC50 [1]: 26.2 µM | Activity [2]: Non-Toxic

CC(=O)O[C@H]1[C@](O)(CO)[C@@H]2CC[C@H]3[C@]45CCCC(C)(C)[C@H]4[C@H](OC(C)=O)[C@@](O)(OC5)[C@]13C2
IC50 [1]: 44.1 µM | Activity [2]: Non-Toxic

CSC(=N)N
IC50 [1]: 3.6 µM | Activity [2]: Non-Toxic

C=C1[C@@H]2CC[C@H]3[C@]4(C)CCCC(C)(C)[C@H]4[C@H](OC(C)=O)C(=O)[C@]3(C2)[C@@H]1OC(C)=O
IC50 [1]: 7.3 µM | Activity [2]: Non-Toxic
